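96-well plates; 48 h exposure; 5 concentrations. Endpoints by linear interpolation between flanking doses. Not reached: highest tested concentration assigned. GI50 is the concentration that inhibits growth by half. The concentration for full growth arrest is given as TGI.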
Key:
Assay in all cases: NCI-60 cell line screen, 48 h; in the data active means GI50 below about 0.43 µM; inactive means the rest
[1] = test system: KM12 colon
[2] = test system: SK-OV-3 ovarian
[3] = test system: OVCAR-3 ovarian
[4] = test system: SF-539 CNS
[5] = test system: HS 578T breast
[6] = test system: HCC-2998 colon
[7] = test system: SK-MEL-2 melanoma
[8] = test system: MCF7 breast
[9] = test system: MALME-3M melanoma
[10] = test system: OVCAR-5 ovarian
[11] = test system: MDA-MB-231 breast
[12] = test system: OVCAR-4 ovarian
[13] = test system: SR leukemia
[14] = test system: SF-295 CNS
[15] = test system: NCI-H460 lung
[16] = test system: 786-0 renal
[17] = test system: SNB-75 CNS
[18] = test system: DU-145 prostate
[19] = test system: A549 NSCLC
[20] = test system: HCT-116 colon
[21] = test system: M14 melanoma
[22] = test system: EKVX NSCLC
[23] = test system: U251 CNS
[24] = test system: CAKI-1 renal
[25] = test system: OVCAR-8 ovarian
[26] = test system: UACC-257 melanoma
[27] = test system: SN12C renal
[28] = test system: NCI-H522 lung
[29] = test system: HOP-62 NSCLC
[30] = test system: HCT-15 colon
[31] = test system: COLO 205 colon
[32] = test system: HL-60(TB) leukemia
[33] = test system: SW-620 colon
[34] = test system: SF-268 CNS
[35] = test system: RPMI-8226 leukemia
[36] = test system: UO-31 renal
[37] = test system: NCI-H226 lung
[38] = test system: T-47D breast
[39] = test system: SK-MEL-28 melanoma
[40] = test system: HT29 colon
[41] = test system: A498 renal
[42] = test system: ACHN renal
[43] = test system: PC-3 prostate
[44] = test system: RXF 393 renal
[45] = test system: K-562 leukemia
[46] = test system: MOLT-4 leukemia
[47] = test system: NCI/ADR-RES ovarian
[48] = test system: TK-10 renal
[49] = test system: MDA-MB-435
[50] = test system: BT-549 breast
[51] = test system: CCRF-CEM leukemia
[52] = test system: IGROV1 ovarian
[53] = test system: UACC-62 melanoma
[54] = test system: LOX IMVI melanoma
[55] = test system: NCI-H23 lung
[56] = test system: SK-MEL-5 melanoma
[57] = test system: SNB-19 CNS

c1ccc(Oc2cnc3ccccc3n2)cc1
68.3 µM: TGI [50]
inactive: GI50 [1] > 100 µM | GI50 [2] > 100 µM | GI50 [3] > 100 µM | GI50 [4] 92.3 µM | GI50 [5] 30.3 µM | GI50 [6] > 100 µM | GI50 [7] > 100 µM | GI50 [8] > 100 µM | GI50 [9] > 100 µM | GI50 [10] > 100 µM | GI50 [11] > 100 µM | GI50 [12] > 100 µM | GI50 [13] 55.3 µM | GI50 [14] 36.4 µM | GI50 [15] > 100 µM | GI50 [16] > 100 µM | GI50 [17] 33.8 µM | GI50 [18] > 100 µM | GI50 [19] > 100 µM | GI50 [20] > 100 µM | GI50 [21] > 100 µM | GI50 [22] 77.4 µM | GI50 [23] > 100 µM | GI50 [24] 10.2 µM | GI50 [25] > 100 µM | GI50 [26] > 100 µM | GI50 [27] > 100 µM | GI50 [28] > 100 µM | GI50 [29] > 100 µM | GI50 [30] > 100 µM | GI50 [31] > 100 µM | GI50 [32] 18.7 µM | GI50 [33] > 100 µM | GI50 [34] 64 µM | GI50 [35] > 100 µM | GI50 [36] 39.1 µM | GI50 [37] 28.1 µM | GI50 [38] 75.5 µM | GI50 [39] > 100 µM | GI50 [40] > 100 µM | GI50 [41] 14.7 µM | GI50 [42] > 100 µM | GI50 [43] > 100 µM | GI50 [44] 31.9 µM | GI50 [45] > 100 µM | GI50 [46] 36.3 µM | GI50 [47] > 100 µM | GI50 [48] 53.9 µM | GI50 [49] > 100 µM | GI50 [50] 12 µM | GI50 [51] > 100 µM | GI50 [52] 74.5 µM | GI50 [53] 85.3 µM | GI50 [54] > 100 µM | GI50 [55] > 100 µM | GI50 [56] 46.3 µM | GI50 [57] > 100 µM
> 100 µM: TGI [1] | TGI [2] | TGI [3] | TGI [4] | TGI [5] | TGI [6] | TGI [7] | TGI [8] | TGI [9] | TGI [10] | TGI [11] | TGI [12] | TGI [13] | TGI [14] | TGI [15] | TGI [16] | TGI [17] | TGI [18] | TGI [19] | TGI [20] | TGI [21] | TGI [22] | TGI [23] | TGI [25] | TGI [26] | TGI [27] | TGI [28] | TGI [29] | TGI [30] | TGI [31] | TGI [32] | TGI [33] | TGI [34] | TGI [35] | TGI [36] | TGI [37] | TGI [38] | TGI [39] | TGI [40] | TGI [41] | TGI [42] | TGI [43] | TGI [44] | TGI [45] | TGI [46] | TGI [47] | TGI [48] | TGI [49] | TGI [51] | TGI [52] | TGI [53] | TGI [54] | TGI [55] | TGI [56] | TGI [57]
50 µM: TGI [24]
